From ChEMBL document CHEMBL1926599, “Bis(oxyphenylene)benzimidazoles: a novel class of anti-Plasmodium falciparum agents” (Bioorg Med Chem, 2011) come the findings set out here.

The test system of one data set is L6. In words: Cytotoxicity against rat L6 cells after 72 hrs by resazurin-based spectrophotometric assay. Conditions: L6, 72 h. The format is cell-based. On the technique in general: Resazurin is reduced to fluorescent resorufin, in cell work by metabolically active cells.
A further data set deals with Trypanosoma cruzi. Kind of data set: Antitrypanosomal activity against trypomastigote form of Trypanosoma cruzi Tulahuen C2C4 expressing Lac Z infected in rat L6 cells after 96 hrs by spectrophotometry. Type of data set: functional, organism-based. Conditions: Tulahuen C2C4, L6, 96 h.
Another data set deals with Plasmodium falciparum. In words: Antiplasmodial activity against chloroquine and pyrimethamine-resistant Plasmodium falciparum K1 assessed as inhibition of [3H]hypoxanthine incorporation incubated for 48 hrs prior to [3H] hypoxanthine addition measured after 24 hrs by liquid scintillation counting. The format is functional, organism-based.
The nature of data set [1]: Selectivity ratio of IC50 for rat L6 cells to IC50 for Leishmania donovani MHOM-ET-67/L82. Type of data set: ADME, cell-based. Conditions: read-out: Ratio IC50.
In a further data set the test system is Leishmania donovani. Kind of data set: Antileishmanial activity against Leishmania donovani MHOM-ET-67/L82 after 72 hrs by resazurin-based spectrophotometric assay. Type of data set: functional, organism-based. The note with it: MHOM-ET-67/L82, 72 h.
A short description of data set [2]: Selectivity ratio of IC50 for rat L6 cells to IC50 for Plasmodium falciparum K1. Conditions: read-out: Ratio IC50. The format is ADME, cell-based.
The test system of data set [3] is Trypanosoma brucei rhodesiense. In words: Antitrypanosomal activity against bloodstream form of Trypanosoma brucei rhodesiense STIB 900 after 70 hrs by resazurin-based spectrophotometric assay. Type of data set: functional, organism-based. The note with it: STIB 900, 70 h.
The test system of another data set is Entamoeba histolytica. In words: Antiprotozoal activity against Entamoeba histolytica Hk-9 trophozoites after 70 hrs by resazurin-based spectrophotometric assay. The format is functional, organism-based. The note with it: Hk-9, 70 h.
The nature of data set [4]: Inhibition of beta-hematin formation in aqueous acetate buffer. Type of data set: functional.
A short description of data set [5]: Selectivity ratio of IC50 for rat L6 cells to IC50 for Entamoeba histolytica Hk-9. Type of data set: ADME, cell-based. The note with it: read-out: Ratio IC50.
The subject of the next data set is Giardia intestinalis. In words: Antiprotozoal activity against Giardia intestinalis G1 after 70 hrs by resazurin-based spectrophotometric assay. Conditions: Giardia duodenalis, G1, 70 h. Type of data set: functional, organism-based.
In data set [6] the test system is Trypanosoma brucei rhodesiense. In words: Antitrypanosomal activity against bloodstream form of Trypanosoma brucei rhodesiense STIB 900 after 70 hrs by resazurin-based spectrophotometric assay relative to melarsoprol. Type of data set: functional.
Data set [7] in a line: Selectivity ratio of IC50 for rat L6 cells to IC50 for bloodstream form of Trypanosoma brucei rhodesiense STIB 900. Type of data set: ADME, cell-based. The note with it: read-out: Ratio IC50.
Data set [8] is described as follows: Selectivity ratio of IC50 for rat L6 cells to IC50 for Giardia intestinalis G1. The format is ADME, cell-based. The note with it: read-out: Ratio IC50.

pIC50: −log10 of the molar value. Active and inactive are the calls of the source. The rule behind the calls is not given here.

As for `c1cc(COc2ccc(-c3nc4ccccc4[nH]3)cc2)cc(COc2ccc(-c3nc4ccccc4[nH]3)cc2)c1`, the negative logarithm of the IC50 (pIC50) with L6 was below 3.76; in the data set with Trypanosoma cruzi it was 3.95; in the data set with Plasmodium falciparum, 6.42; with Leishmania donovani, 5.98; in [3] it was 5.45. The selectivity ratio is above 164 in [1] and above 450 in [2].
For `c1ccc2[nH]c(-c3ccc(OCCCOc4ccc(-c5nc6ccccc6[nH]5)cc4)cc3)nc2c1`, the pIC50 with Entamoeba histolytica is 5.47; with L6 it was 5.45; in the data set with Trypanosoma cruzi it was 5.41; in the data set on Giardia intestinalis, 6.13; in the data set on Plasmodium falciparum, 6.55; in the data set with Leishmania donovani, 5.57. In addition, in data set [3], the pIC50 is 5.82. Moreover, in data set [4], the inhibition result is “Active”. Also, the figures for the selectivity ratio in data set [5] and in [2] were 1 and 13, respectively.
Turning to `c1ccc2[nH]c(-c3ccc(OCCCCCCCCOc4ccc(-c5nc6ccccc6[nH]5)cc4)cc3)nc2c1`, the negative-log IC50 (pIC50) was 4.18 in the data set on Entamoeba histolytica; 4.70 with L6; 4.24 in the data set with Trypanosoma cruzi; 4.98 with Giardia intestinalis; 6.52 with Plasmodium falciparum; 4.01 with Leishmania donovani. The negative-log IC50 (pIC50) in [3] was 4.41. For the same compound, the “Ratio IC50” value in [6] is reported as 100. Moreover, in [2], the selectivity ratio was 67.
Consider `c1ccc2[nH]c(-c3ccc(OCCCCCCCCCOc4ccc(-c5nc6ccccc6[nH]5)cc4)cc3)nc2c1`, for which the pIC50 was 4.51 with Entamoeba histolytica; 3.99 in the data set on L6; below 3.78 in the data set on Trypanosoma cruzi; 6.08 in the data set on Giardia intestinalis; 6.54 in the data set with Plasmodium falciparum; 5.23 in the data set with Leishmania donovani. In data set [3], the pIC50 was 6.09. In addition, the values for the selectivity ratio in data set [2], in data set [7] and in [8] were 344, 123 and 123, respectively.

By pIC50 is commonly meant −log10 of the IC50, conventionally taken in molar units.
